The NIST ThermoML archive (doi:10.1016/j.fluid.2005.04.021)
± gives the expanded uncertainty stated by the source.

Assay: activity coefficient (dimensionless); of the first substance listed, at infinite dilution; xn = mol fraction of the nth substance listed
Details: Liquid, x1 = 0

SMILES | activity coefficient (308.15 K) | activity coefficient (318.15 K) | activity coefficient (328.15 K)
C#CCCCCC [1-heptyne] + CCCCCCCCCCCCCC[P+](CCCCCC)(CCCCCC)CCCCCC.FC(F)(F)C(F)(F)[P-](F)(F)(F)(C(F)(F)C(F)(F)F)C(F)(F)C(F)(F)F | 0.46 ± 0.05 | 0.46 ± 0.05 | 0.45 ± 0.05
C=CCCCCC [1-heptene] + CCCCCCCCCCCCCC[P+](CCCCCC)(CCCCCC)CCCCCC.FC(F)(F)C(F)(F)[P-](F)(F)(F)(C(F)(F)C(F)(F)F)C(F)(F)C(F)(F)F | 0.59 ± 0.06 | 0.58 ± 0.06 | 0.57 ± 0.06
CCCCC [pentane] + CCCCCCCCCCCCCC[P+](CCCCCC)(CCCCCC)CCCCCC.FC(F)(F)C(F)(F)[P-](F)(F)(F)(C(F)(F)C(F)(F)F)C(F)(F)C(F)(F)F | 0.61 ± 0.06 | 0.6 ± 0.06 | 0.59 ± 0.06
c1ccccc1 [benzene] + CCCCCCCCCCCCCC[P+](CCCCCC)(CCCCCC)CCCCCC.FC(F)(F)C(F)(F)[P-](F)(F)(F)(C(F)(F)C(F)(F)F)C(F)(F)C(F)(F)F | 0.2 ± 0.06 | 0.19 ± 0.06 | 0.19 ± 0.06
C1CCCCCC1 [cycloheptane] + CCCCCCCCCCCCCC[P+](CCCCCC)(CCCCCC)CCCCCC.FC(F)(F)C(F)(F)[P-](F)(F)(F)(C(F)(F)C(F)(F)F)C(F)(F)C(F)(F)F | 0.54 ± 0.06 | 0.52 ± 0.06 | 0.49 ± 0.06
C1CCCC1 [cyclopentane] + CCCCCCCCCCCCCC[P+](CCCCCC)(CCCCCC)CCCCCC.FC(F)(F)C(F)(F)[P-](F)(F)(F)(C(F)(F)C(F)(F)F)C(F)(F)C(F)(F)F | 0.42 ± 0.05 | 0.42 ± 0.05 | 0.41 ± 0.05
CO [methanol] + CCCCCCCCCCCCCC[P+](CCCCCC)(CCCCCC)CCCCCC.FC(F)(F)C(F)(F)[P-](F)(F)(F)(C(F)(F)C(F)(F)F)C(F)(F)C(F)(F)F | 1.23 ± 0.09 | 1.14 ± 0.08 | 1.01 ± 0.07
C#CCCCCCC [1-octyne] + CCCCCCCCCCCCCC[P+](CCCCCC)(CCCCCC)CCCCCC.FC(F)(F)C(F)(F)[P-](F)(F)(F)(C(F)(F)C(F)(F)F)C(F)(F)C(F)(F)F | 0.57 ± 0.06 | 0.52 ± 0.06 | 0.51 ± 0.06

Second part, the molecule after the results:

activity coefficient (308.15 K) | activity coefficient (318.15 K) | activity coefficient (328.15 K) | SMILES
0.74 ± 0.06 | 0.72 ± 0.06 | 0.7 ± 0.06 | CCCCCCC [heptane] + CCCCCCCCCCCCCC[P+](CCCCCC)(CCCCCC)CCCCCC.FC(F)(F)C(F)(F)[P-](F)(F)(F)(C(F)(F)C(F)(F)F)C(F)(F)C(F)(F)F
0.84 ± 0.06 | 0.8 ± 0.06 | 0.77 ± 0.06 | CCCCCCCC [octane] + CCCCCCCCCCCCCC[P+](CCCCCC)(CCCCCC)CCCCCC.FC(F)(F)C(F)(F)[P-](F)(F)(F)(C(F)(F)C(F)(F)F)C(F)(F)C(F)(F)F
0.53 ± 0.06 | 0.53 ± 0.06 | 0.52 ± 0.06 | C=CCCCC [hex-1-ene] + CCCCCCCCCCCCCC[P+](CCCCCC)(CCCCCC)CCCCCC.FC(F)(F)C(F)(F)[P-](F)(F)(F)(C(F)(F)C(F)(F)F)C(F)(F)C(F)(F)F
0.49 ± 0.06 | 0.48 ± 0.05 | 0.44 ± 0.05 | C1CCCCC1 [cyclohexane] + CCCCCCCCCCCCCC[P+](CCCCCC)(CCCCCC)CCCCCC.FC(F)(F)C(F)(F)[P-](F)(F)(F)(C(F)(F)C(F)(F)F)C(F)(F)C(F)(F)F
1.16 ± 0.09 | 1 ± 0.07 | 0.87 ± 0.06 | CCCO [propan-1-ol] + CCCCCCCCCCCCCC[P+](CCCCCC)(CCCCCC)CCCCCC.FC(F)(F)C(F)(F)[P-](F)(F)(F)(C(F)(F)C(F)(F)F)C(F)(F)C(F)(F)F
0.42 ± 0.05 | 0.42 ± 0.05 | 0.41 ± 0.05 | C#CCCCC [1-hexyne] + CCCCCCCCCCCCCC[P+](CCCCCC)(CCCCCC)CCCCCC.FC(F)(F)C(F)(F)[P-](F)(F)(F)(C(F)(F)C(F)(F)F)C(F)(F)C(F)(F)F
1.2 ± 0.09 | 1.07 ± 0.08 | 0.93 ± 0.07 | CCO [ethanol] + CCCCCCCCCCCCCC[P+](CCCCCC)(CCCCCC)CCCCCC.FC(F)(F)C(F)(F)[P-](F)(F)(F)(C(F)(F)C(F)(F)F)C(F)(F)C(F)(F)F
0.66 ± 0.06 | 0.64 ± 0.06 | 0.62 ± 0.06 | CCCCCC [hexane] + CCCCCCCCCCCCCC[P+](CCCCCC)(CCCCCC)CCCCCC.FC(F)(F)C(F)(F)[P-](F)(F)(F)(C(F)(F)C(F)(F)F)C(F)(F)C(F)(F)F
0.67 ± 0.06 | 0.65 ± 0.06 | 0.64 ± 0.06 | C=CCCCCCC [oct-1-ene] + CCCCCCCCCCCCCC[P+](CCCCCC)(CCCCCC)CCCCCC.FC(F)(F)C(F)(F)[P-](F)(F)(F)(C(F)(F)C(F)(F)F)C(F)(F)C(F)(F)F
